The test system of data set [1] is Human bone marrow-derived mesenchymal stem cells. Put plainly: Mesenchymal stem cell proliferation system (cell number by DNA quantification). The following applies: growth of mesenchymal stem cell, control ratio.
The target of data set [2] is T1, bFGF (Homo sapiens, UniProt P09038).
T1 construct: purchased Lonza (via TAKARA BIO INC.) Ser. No. 00/190,632
Put plainly: Evaluation of bFGF stabilization in Lonza serum-free medium (ELISA). It counts as biochemical. The note with it: for effectiveness ELISA: effectiveness in ELISA evaluation of mesenchymal stem cells (medium), 4° C. control ratio. In short, it runs like this:
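Compound in PBS diluted 10-fold into serum-free medium and held sealed at 37 °C for 7 days (some sets 3 days). Remaining bFGF quantified by human bFGF sandwich ELISA against a standard curve. Controls were compound-free PBS-medium kept at 37 °C or 4 °C for the same period.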

Data set [3] can be described thus: Measurement of content level of sulfur in test compound (ICP). It counts as physicochemical. The following applies: ICPS-8100, evaluation samples containing 0.01 wt % test compound. The text has this: The content level of sulfur in the sulfated saccharide is generally not less than 5 wt %, preferably not less than 10 wt %, more preferably not less than 15 wt %, and the upper limit is generally not more than 40 wt %, preferably not more than 35 wt %, more preferably not more than 30 wt %. […] Here, the content level of sulfur is a proportion in wt % of sulfur derived only from the sulfate group in sulfated saccharides, which can be measured by a method known in the field (e.g., rhodizonate method, elemental analysis or luminescent spectral analysis).
The content level of sulfur in the sulfated polymer is generally not less than 5 wt %, preferably not less than 10 wt %, more preferably not less than 15 wt %, and the upper limit is generally not more than 40 wt %. […] Here, the content level of sulfur is a proportion in wt % of sulfur in the sulfated polymer, which can be measured by a method known in the field such as rhodizonate method, elemental analysis or luminescent spectral analysis).
The relationship between the content level of sulfur in a test compound (sulfur content) and the cell proliferation promoting effect was examined. The sulfur content was measured using ICPS-8100 manufactured by SHIMADZU CORPORATION and analyzed using ICPS-8000 series Ver1.03. As the reference standard of sulfur, the standard for ICP-MS manufactured by Accu Standard was used. Sulfur reference standard solutions (0, 1, 10, 30, 50 ppm) were prepared, and the sulfur content of the evaluation samples containing 0.01 wt % test compound was measured by an analytical curve method.

Data set [4] has as its target T1, bFGF. The experiment in a line: Evaluation of bFGF stabilization in Essential 8 medium (ELISA). It is filed as biochemical. The following applies: 37° C. for 7 days. Put shortly: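 Test compound in PBS diluted 10-fold into serum-free medium (Essential 8 or ReproFF2), held sealed at 37° C for 7 days; remaining bFGF quantified by ELISA against a standard curve. Controls: PBS without compound diluted into each medium, held 7 days at 37° C or 4° C.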
For orientation: ELISA stands for enzyme-linked immunosorbent assay.

Setting [5] is: Lonza serum-free medium, 37° C. for 7 days, test compound 25 ng/ml.
The mark [6] stands for this setting: Lonza serum-free medium, 37° C. for 7 days, test compound 250 ng/ml.
Where [7] appears, read: Lonza serum-free medium, 37° C. for 7 days, test compound 25 μg/ml.
Setting [8] is: Lonza serum-free medium, 37° C. for 7 days, test compound 250 μg/ml.

The values below come from patent US10689622B2, “Culture medium for proliferating stem cell, which contains sulfated compound” (AJINOMOTO CO., INC., priority 2012, dated 2020).

T1 sequence (P09038 143-288): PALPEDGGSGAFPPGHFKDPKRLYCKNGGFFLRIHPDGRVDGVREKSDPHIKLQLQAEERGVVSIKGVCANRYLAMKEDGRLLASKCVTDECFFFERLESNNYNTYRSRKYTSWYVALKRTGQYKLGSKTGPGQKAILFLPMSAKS

With gluconolactone-SO3Na, the effectiveness cells result in data set [1] was “◯ (◯ not leas than 100%)”. Besides, the “bFGF concentration relative to that of 4° C. control (ELISA)” value (shortened to “bFGF concentration relative to that”) is “x (bFGF concentration was less than 10% relative to that of 4 °C control)” in data set [2] (setting [5]); “x (bFGF concentration was less than 10% relative to that of 4 °C control)” in data set [2] (setting [6]); “++ (bFGF concentration was not less than 50% and less than 70% relative to that of 4 °C control)” in data set [2] (setting [7]); “x (bFGF concentration was less than 10% relative to that of 4 °C control)” in data set [2] (setting [8]); “x (bFGF concentration was less than 10% relative to that of 4 °C control)” in data set [4] (test compound 250 pg/ml); “x (bFGF concentration was less than 10% relative to that of 4 °C control)” in data set [4] (test compound 25 ng/ml). Also, the “bFGF concentration relative to that” value in data set [4] (test compound 250 ng/ml) is “x (bFGF concentration was less than 10% relative to that of 4 °C control)”; in data set [4] (test compound 25 μg/ml), “++ (bFGF concentration was not less than 50% and less than 70% relative to that of 4 °C control)”; in data set [4] (test compound 250 μg/ml), “+++ (bFGF concentration was not less than 70% relative to that of 4 °C control)”. Also, the “concentration at which a decrease in the protein amount of FGF is not suppressed” value in data set [2] (as shown in the Examples (methods of Examples I-1 and II-1)) was “not more than 2.5 μg/ml”. The “effectiveness ELISA” value in data set [2] is listed as “++ (++ 50%<)”. Further, the “sulfur content Found (inorganic analysis)” value (shortened to “sulfur content Found”) in data set [3] came to 14 wt %. Also, the “concentration showing a suppressive effect on a decrease in the bFGF concentration of the medium” value in data set [4] was “not less than 25 μg/ml”.
Take erythritol SO3Na: the effectiveness cells entry in data set [1] is given as “◯ (◯ not leas than 100%)”. In addition, the “concentration showing a suppressive effect on a decrease in the bFGF concentration in the medium” value in data set [2] (Lonza serum-free medium, 37° C. for 3 days) is listed as “not less than 25 μg/ml”. For the same substance, the “bFGF concentration relative to that” value in data set [2] (Lonza serum-free medium, 37° C. for 3 days, test compound 25 ng/ml) is “x (bFGF concentration was less than 10% relative to that of 4 °C control)”; in data set [2] (Lonza serum-free medium, 37° C. for 3 days, test compound 250 ng/ml) it was “x (bFGF concentration was less than 10% relative to that of 4 °C control)”; in data set [2] (Lonza serum-free medium, 37° C. for 3 days, test compound 25 μg/ml), “++ (bFGF concentration was not less than 50% and less than 70% relative to that of 4 °C control)”; in data set [2] (Lonza serum-free medium, 37° C. for 3 days, test compound 250 μg/ml), “+++ (bFGF concentration was not less than 70% relative to that of 4 °C control)”; in data set [2] (setting [5]), “x (bFGF concentration was less than 10% relative to that of 4 °C control)”; in data set [2] (setting [6]) it was “x (bFGF concentration was less than 10% relative to that of 4 °C control)”. Also, the “bFGF concentration relative to that” value in data set [2] (setting [7]) is “x (bFGF concentration was less than 10% relative to that of 4 °C control)”; in data set [2] (setting [8]) it was “+ (bFGF concentration was not less than 30% and less than 50% relative to that of 4 °C control)”; in data set [4] (test compound 250 pg/ml) it was “x (bFGF concentration was less than 10% relative to that of 4 °C control)”; in data set [4] (test compound 25 ng/ml), “x (bFGF concentration was less than 10% relative to that of 4 °C control)”; in data set [4] (test compound 250 ng/ml), “x (bFGF concentration was less than 10% relative to that of 4 °C control)”; in data set [4] (test compound 25 μg/ml), “+ (bFGF concentration was not less than 30% and less than 50% relative to that of 4 °C control)”. Further, the “bFGF concentration relative to that” value in data set [4] (test compound 250 μg/ml) is “+++ (bFGF concentration was not less than 70% relative to that of 4 °C control)”. The “effectiveness ELISA” value in data set [2] was “+ (+ 30%<)”. Besides, the “sulfur content Found” value in data set [3] is given as 16 wt %. The “concentration showing a suppressive effect on a decrease in the bFGF concentration of the medium” value in data set [4] was “not less than 25 μg/ml”.
On to maltitol SO3Na, for which the effectiveness cells result in data set [1] was “⊚ (⊚ not less than 120%)”. Moreover, the “bFGF concentration relative to that” value in data set [2] (setting [5]) was “x (bFGF concentration was less than 10% relative to that of 4 °C control)”; in data set [2] (setting [6]) it was “++ (bFGF concentration was not less than 50% and less than 70% relative to that of 4 °C control)”; in data set [2] (setting [7]), “+++ (bFGF concentration was not less than 70% relative to that of 4 °C control)”; in data set [2] (setting [8]) it was “++ (bFGF concentration was not less than 50% and less than 70% relative to that of 4 °C control)”; in data set [4] (test compound 250 pg/ml) it was “x (bFGF concentration was less than 10% relative to that of 4 °C control)”; in data set [4] (test compound 25 ng/ml), “x (bFGF concentration was less than 10% relative to that of 4 °C control)”. Moreover, the “bFGF concentration relative to that” value in data set [4] (test compound 250 ng/ml) is “x (bFGF concentration was less than 10% relative to that of 4 °C control)”; in data set [4] (test compound 25 μg/ml), “+ (bFGF concentration was not less than 30% and less than 50% relative to that of 4 °C control)”; in data set [4] (test compound 250 μg/ml) it was “+ (bFGF concentration was not less than 30% and less than 50% relative to that of 4 °C control)”. In addition, the “effectiveness ELISA” value in data set [2] is “+++ (+++ 70%<)”. For the same substance, the “sulfur content Found” value in data set [3] was 17 wt %. Also, the “concentration showing a suppressive effect on a decrease in the bFGF concentration of the medium” value in data set [4] is “not less than 2.5 μg/ml”.
As for mannitol SO3Na, the effectiveness cells result in data set [1] is given as “◯ (◯ not leas than 100%)”. For the same substance, the “bFGF concentration relative to that” value was “+ (bFGF concentration was not less than 30% and less than 50% relative to that of 4 °C control)” in data set [2] (setting [5]); “− (bFGF concentration was not less than 10% and less than 30% relative to that of 4 °C control)” in data set [2] (setting [6]); “+ (bFGF concentration was not less than 30% and less than 50% relative to that of 4 °C control)” in data set [2] (setting [7]); “++ (bFGF concentration was not less than 50% and less than 70% relative to that of 4 °C control)” in data set [2] (setting [8]); “x (bFGF concentration was less than 10% relative to that of 4 °C control)” in data set [4] (test compound 250 pg/ml); “x (bFGF concentration was less than 10% relative to that of 4 °C control)” in data set [4] (test compound 25 ng/ml). The “bFGF concentration relative to that” value in data set [4] (test compound 250 ng/ml) is “x (bFGF concentration was less than 10% relative to that of 4 °C control)”; in data set [4] (test compound 25 μg/ml), “+++ (bFGF concentration was not less than 70% relative to that of 4 °C control)”; in data set [4] (test compound 250 μg/ml), “+++ (bFGF concentration was not less than 70% relative to that of 4 °C control)”. Further, in data set [2], the “effectiveness ELISA” value was “++ (++ 50%<)”. For the same substance, the “sulfur content Found” value in data set [3] was 17 wt %. For the same substance, in data set [4], the “concentration showing a suppressive effect on a decrease in the bFGF concentration of the medium” value is on record as “not less than 2.5 μg/ml”.
